# Experimental data taken from patent US20030181389A1, “Therapeutic and prophylactic use of reduced forms of pharmaceutical compounds” (priority 2000, published 2003).
# Marks after values point to notes of the source that are not given here.
# Tests used:
# [1] = adrenochrome system: auto-oxidation of dl-epinephrine; type: biochemical; conditions: dl-epinephrine 500 μM, pH 10.2; for oxidation peak of Leucomethylene blue (665 nm) / effect on appearance of adrenochrome at 310 nm / oxidation peak of Leucothionine (605 nm): 50 μM; for appearance of adrenochrome (310 nm) in presence of leuco compound: leuco compound 50 μM; for appearance of adrenochrome (310 nm) in presence of leuco compound / effect on appearance of adrenochrome at 310 nm: 30° C.
# Description: In another experiment, the results of the experiment in Example 1 above were confirmed by using the adrenochrome system. In this system, dl-epinephrine is auto-oxidised under alkaline conditions by a superoxide dependent pathway. The reaction rate of this reaction can be decreased or interrupted by the addition of SOD, which scavenges superoxide. […] In this system, the rate of auto-oxidation of dl-epinephrine is decreased by the presence of either leuco compound, while the leuco compounds themselves are oxidised by superoxide in a rate dependent manner.
# In this experiment, dl-epinephrine (500 μM) was allowed to auto-oxidise in 50 mM sodium carbonate buffer (pH 10.2) containing EDTA (100 μM) at 30° C. under these conditions, epinephrine is oxidised to adrenochrome (310 or 485 nm increase in absorption).
# [2] = oxygen superoxide scavenging (recent research); type: biochemical; conditions: stabilised leucomethylene blue
# [3] = direct oxidation of leuco compounds by potassium superoxide; type: biochemical; conditions: for final optical density leucomethylene blue (665 nm) / direct oxidation of the leuco compound by potassium superoxide / final optical density leucothionine (605 nm): approximately 10 μM, pH 7.8; for final optical density leucomethylene blue (665 nm) / final optical density leucothionine (605 nm): potassium superoxide; for colour change of the cell: after potassium superoxide addition; for direct oxidation of the leuco compound by potassium superoxide: EDTA 100 μM
# Procedure: In a further experiment, potassium superoxide was added to a reaction cell containing buffers, EDTA and concentrations of leucothionine and leucomethylene blue. Direct oxidation of the leuco compounds was observed by superoxide.
# Potassium superoxide was added directly to nitrogen gassed potassium phosphate buffer (pH 7.8) containing EDTA (100 μM) and approximately 10 μM concentration of leucothionine and leucomethylene blue.
# Due to the effervescence of the cell, a known property of potassium superoxide in water, no measurements were possible in the first 4 minutes of the reaction.
# [4] = xanthine/xanthine oxidase superoxide assay: oxidation of leuco compounds, with SOD added after sixth minute; type: biochemical; conditions: for effect of addition of SOD on rate of oxidation of the leuco compound: 5 units of SOD added after the sixth minute; for oxidation of leucomethylene blue (665 nm), rate of change of optical density / oxidation of leucothionine (605 nm), rate of change of optical density: 12.5 μM
# Description: The principle upon which the following assay is based is that the enzyme xanthine oxidase acts on xanthine to oxidise xanthine and thereby to reduce ferricytochrome C by a mechanism which, at least partly, involves superoxide. Thus, the reduction (and increase) in optical density of ferricytochrome C is dependent on superoxide as a reductant. The inclusion of superoxide dismutase (“SOD”) in the assay serves to dismutate some of the available superoxide, thus causing a decrease in the rate of reduction of ferricytochrome C. […]
# Superoxide is a single electron reductant or oxidant.
# To explore the effect of leucothionine and leucomethylene blue, these compounds were mixed at 12.5 μM concentration in 50 mM potassium phosphate buffer (pH 7.8) with xanthine (50 μM) and EDTA (100 μM) buttermilk xanthine oxidase (around […]) was then added to give a rate of increase in absorbance of about 0.1 optical density units (for methylene blue at 665 nm and for thionine at 605 nm) per minute at 30° C. above controls using leucothionine or leucomethylene blue, potassium phosphate buffer, xanthine and EDTA alone.
# haemoglobin = conditions: chronic toxicity studies, laboratory animals; cited from earlier work
# [5] = minute 1, before SOD, pH 7.8, 30° C.
# [6] = minute 2, before SOD, pH 7.8, 30° C.
# [7] = minute 3, before SOD, pH 7.8, 30° C.
# [8] = minute 4, before SOD, pH 7.8, 30° C.
# [9] = minute 5, before SOD, pH 7.8, 30° C.
# [10] = minute 6, before SOD, pH 7.8, 30° C.
# [11] = minute 7, after addition of 5 units of SOD
# [12] = minute 8, after addition of 5 units of SOD
# [13] = minute 9, after addition of 5 units of SOD
# [14] = minute 10, after addition of 5 units of SOD
# [15] = minute 11, after addition of 5 units of SOD
# [16] = minute 12, after addition of 5 units of SOD
smiles,measurement,setting,value
CN(C)c1ccc2c(c1)Sc1cc(N(C)C)ccc1N2 [leucomethylene blue],oxidation peak of Leucomethylene blue (665 nm),[1]; 0 minutes,0.006
same,appearance of adrenochrome (310 nm) in presence of leuco compound,[1]; 0 minutes,0.005
same,effect on appearance of adrenochrome at 310 nm,[1],effective in reducing the appearance of adrenochrome
same,oxidation peak of Leucomethylene blue (665 nm),[1]; 1 minute,0.093
same,appearance of adrenochrome (310 nm) in presence of leuco compound,[1]; 1 minute,0.031
same,oxidation peak of Leucomethylene blue (665 nm),[1]; 2 minutes,0.110
same,appearance of adrenochrome (310 nm) in presence of leuco compound,[1]; 2 minutes,0.021
same,oxidation peak of Leucomethylene blue (665 nm),[1]; 3 minutes,0.120
same,appearance of adrenochrome (310 nm) in presence of leuco compound,[1]; 3 minutes,0.030
same,oxidation peak of Leucomethylene blue (665 nm),[1]; 4 minutes,0.116
same,appearance of adrenochrome (310 nm) in presence of leuco compound,[1]; 4 minutes,0.035
same,oxidation peak of Leucomethylene blue (665 nm),[1]; 5 minutes,0.121
same,appearance of adrenochrome (310 nm) in presence of leuco compound,[1]; 5 minutes,0.031
same,oxidation peak of Leucomethylene blue (665 nm),[1]; 6 minutes,0.119
same,appearance of adrenochrome (310 nm) in presence of leuco compound,[1]; 6 minutes,0.038
same,oxygen superoxide scavenging,[2],powerful oxygen superoxide scavenger
same,final optical density leucomethylene blue (665 nm),[3]; 0 minutes,0.015
same,final optical density leucomethylene blue (665 nm),[3]; 5 minutes,0.38
same,final optical density leucomethylene blue (665 nm),[3]; 6 minutes,0.44
same,final optical density leucomethylene blue (665 nm),[3]; 7 minutes,0.46
same,final optical density leucomethylene blue (665 nm),[3]; 8 minutes,0.44
same,colour change of the cell,[3],colourless to blue
same,direct oxidation of the leuco compound by potassium superoxide,[3],rapidly oxidised to their coloured oxidised states
same,effect of addition of SOD on rate of oxidation of the leuco compound,[4],decreased the rate of oxidation
same,"oxidation of leucomethylene blue (665 nm), rate of change of optical density",[4]; [5],0.096
same,"oxidation of leucomethylene blue (665 nm), rate of change of optical density",[4]; [6],0.102
same,"oxidation of leucomethylene blue (665 nm), rate of change of optical density",[4]; [7],0.110
same,"oxidation of leucomethylene blue (665 nm), rate of change of optical density",[4]; [8],0.101
same,"oxidation of leucomethylene blue (665 nm), rate of change of optical density",[4]; [9],0.099
same,"oxidation of leucomethylene blue (665 nm), rate of change of optical density",[4]; [10],0.103
same,"oxidation of leucomethylene blue (665 nm), rate of change of optical density",[4]; [11],0.030 *
same,"oxidation of leucomethylene blue (665 nm), rate of change of optical density",[4]; [12],0.017
same,"oxidation of leucomethylene blue (665 nm), rate of change of optical density",[4]; [13],0.014
same,"oxidation of leucomethylene blue (665 nm), rate of change of optical density",[4]; [14],0.013
same,"oxidation of leucomethylene blue (665 nm), rate of change of optical density",[4]; [15],0.010
same,"oxidation of leucomethylene blue (665 nm), rate of change of optical density",[4]; [16],0.010
Nc1ccc2c(c1)Sc1cc(N)ccc1N2 [leucothionine],oxidation peak of Leucothionine (605 nm),[1]; 0 minutes,0.007
same,appearance of adrenochrome (310 nm) in presence of leuco compound,[1]; 0 minutes,0.005
same,effect on appearance of adrenochrome at 310 nm,[1],effective in reducing the appearance of adrenochrome
same,oxidation peak of Leucothionine (605 nm),[1]; 1 minute,0.083
same,appearance of adrenochrome (310 nm) in presence of leuco compound,[1]; 1 minute,0.034
same,oxidation peak of Leucothionine (605 nm),[1]; 2 minutes,0.121
same,appearance of adrenochrome (310 nm) in presence of leuco compound,[1]; 2 minutes,0.027
same,oxidation peak of Leucothionine (605 nm),[1]; 3 minutes,0.110
same,appearance of adrenochrome (310 nm) in presence of leuco compound,[1]; 3 minutes,0.033
same,oxidation peak of Leucothionine (605 nm),[1]; 4 minutes,0.114
same,appearance of adrenochrome (310 nm) in presence of leuco compound,[1]; 4 minutes,0.034
same,oxidation peak of Leucothionine (605 nm),[1]; 5 minutes,0.116
same,appearance of adrenochrome (310 nm) in presence of leuco compound,[1]; 5 minutes,0.028
same,oxidation peak of Leucothionine (605 nm),[1]; 6 minutes,0.120
same,appearance of adrenochrome (310 nm) in presence of leuco compound,[1]; 6 minutes,0.032
same,final optical density leucothionine (605 nm),[3]; 0 minutes,0.035
same,final optical density leucothionine (605 nm),[3]; 5 minutes,0.42
same,final optical density leucothionine (605 nm),[3]; 6 minutes,0.45
same,final optical density leucothionine (605 nm),[3]; 7 minutes,0.45
same,final optical density leucothionine (605 nm),[3]; 8 minutes,0.46
same,colour change of the cell,[3],purple
same,direct oxidation of the leuco compound by potassium superoxide,[3],rapidly oxidised to their coloured oxidised states
same,effect of addition of SOD on rate of oxidation of the leuco compound,[4],decreased the rate of oxidation
same,"oxidation of leucothionine (605 nm), rate of change of optical density",[4]; [5],0.086
same,"oxidation of leucothionine (605 nm), rate of change of optical density",[4]; [6],0.093
same,"oxidation of leucothionine (605 nm), rate of change of optical density",[4]; [7],0.093
same,"oxidation of leucothionine (605 nm), rate of change of optical density",[4]; [8],0.095
same,"oxidation of leucothionine (605 nm), rate of change of optical density",[4]; [9],0.101
same,"oxidation of leucothionine (605 nm), rate of change of optical density",[4]; [10],0.096
same,"oxidation of leucothionine (605 nm), rate of change of optical density",[4]; [11],0.041 *
same,"oxidation of leucothionine (605 nm), rate of change of optical density",[4]; [12],0.009
same,"oxidation of leucothionine (605 nm), rate of change of optical density",[4]; [13],0.009
same,"oxidation of leucothionine (605 nm), rate of change of optical density",[4]; [14],0.011
same,"oxidation of leucothionine (605 nm), rate of change of optical density",[4]; [15],0.008
same,"oxidation of leucothionine (605 nm), rate of change of optical density",[4]; [16],0.009
CN(C)c1ccc2nc3ccc(=[N+](C)C)cc-3sc2c1 [methylene blue],haematological toxicity on repeated administration of high doses,haemoglobin,causes oxidation of haemoglobin to methaemoglobin and tissue accumulation of Heinz bodies
